This is an account of results in patent US20120258938A1, “Enzymatic Production or Chemical Synthesis and Uses for 5,7-Dienes and UVB Conversion Products Thereof” (priority 2008, published 2012).

Data set [1] concerns AbC1 hamster melanoma cells. Put plainly: Proliferation (DNA synthesis) of AbC1. Type of data set: cell-based. Conditions: AbC1, 72 h. As for the experimental part:
To measure DNA synthesis, keratinocytes, melanoma or prostate cancer cells were plated in 96-well plates. After overnight incubation tested compounds were added to the medium to achieve final concentrations 10^−7-10^−10 [M]. 100 μl of medium per well containing vitamin D3 compound was added to the cells. After 36 hours of incubation [3H]-thymidine (specific activity 88.0 Ci/mmol; Amersham Biosciences, Picataway, N.Y., USA) was added at 1 μCi/mL medium. After 12 hours, media were discarded, cells detached with trypsin and harvested on a glass fiber filter (Packard, Meriden, Calif., USA). 3H-radioactivity was measured with a beta counter (Direct Beta-Counter Matrix 9600; Packard).
HaCaT keratinocytes were an incubated for 48 h (FIG. 48A) or 72 h (FIG. 48B) in the presence of graded concentrations of 20(OH)D2 and/or 1,25(OH)2D3. […] Data are shown as mean±SD (n 3); *, p<0.05; **, p<0.01.

A further data set concerns the target T1, rat CYP24 (Rattus norvegicus, UniProt Q09128).
T1 sequence (Q09128 36-514): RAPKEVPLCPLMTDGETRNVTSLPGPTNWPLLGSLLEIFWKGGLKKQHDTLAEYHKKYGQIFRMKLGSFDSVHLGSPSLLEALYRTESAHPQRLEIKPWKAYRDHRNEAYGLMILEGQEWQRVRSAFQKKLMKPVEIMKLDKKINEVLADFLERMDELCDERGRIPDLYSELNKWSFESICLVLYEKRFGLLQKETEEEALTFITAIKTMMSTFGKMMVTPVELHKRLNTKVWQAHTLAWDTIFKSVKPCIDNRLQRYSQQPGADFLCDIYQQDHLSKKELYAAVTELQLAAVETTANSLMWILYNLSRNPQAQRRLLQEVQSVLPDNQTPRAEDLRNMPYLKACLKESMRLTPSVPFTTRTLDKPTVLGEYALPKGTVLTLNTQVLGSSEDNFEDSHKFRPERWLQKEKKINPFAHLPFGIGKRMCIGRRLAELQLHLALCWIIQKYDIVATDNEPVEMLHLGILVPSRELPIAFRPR
The experiment in a line: Metabolism by rat CYP24 in phospholipid vesicles. As for the experimental part:
Samples (typically 0.25-1.0 mL) were incubated at 37° C., with shaking, then reactions terminated by the addition of 2.5 mL ice-cold dichloromethane and vortexing. After phase separation aided by centrifugation, the lower organic phase was retained and the upper aqueous phase was extracted twice more with 2.5 mL aliquots of dichloromethane. The dichloromethane was removed under nitrogen and the residual sample dissolved in solvent for HPLC analysis.
To test enzymatic metabolism of 20S(OH)D3 and 20R(OH)D3, the substrates were incorporated into phospholipid vesicles with the ratio of substrate to phospholipid being 0.025 mol/mol phospholipid. Vesicles were incubated with 2 μM bovine CYP11A1 or 0.06 μM human CYP27B1 for up to 10 min. To test enzymatic metabolism of 20(OH)D3 in CYP24, the substrate was incorporated into phospholipids vesicles with 0.15-0.5 μM CYP24. To test enzymatic metabolism of 20(OH)D3 in CYP27A1, purified CYP27A1 was preincubated with the vesicles for 6 min at 37° C. Adrenodoxin was added last to initiate the reaction. For kinetic experiments, the incubations were typically 0.5 mL and were carried out over the initial linear period of the reaction (10 min for vitamin D3 and cholesterol and 30 min for 20(OH)D3).

The subject of the next data set is CYP24. The experiment in a line: Real-time RT PCR CYP24 mRNA, normal epidermal keratinocytes. Type of data set: cell-based, human. As for the experimental part: RNA was extracted as above. Reverse transcription was performed with Transcriptor First Strand cDNA Synthesis Kit (Roche, Nutley, N.J.). The primers (right: 5′-GCA GCT CGA CTG GAG TGA C-3′ (SEQ ID NO: 1) and left: 5′-CATCATGGCCATCAAAACAAT-3′(SEQ ID NO: 2)) and probe (cat. no. 04689135001) were designed with Universal Probe Library (Roche, Nutley, N.J.). Real-time PCR was performed using TaqMan PCR Master Mix at 50° C. for 2 min, 95° C. for 10 min and then 50 cycles (95° C. for 15 sec, 60° C. for 1 min). The data was collected on a Roche Light Cycler 480. The amounts of CYP24 were normalized using cyclophilin D as a housekeeping gene with comparative CT method.

Data set [2] concerns human osteosarcoma cell line MG-63. The experiment in a line: Proliferation of MG-63 osteosarcoma cells. Type of data set: cell-based. As for the experimental part:
Cells were seeded in 96-well plate and incubated with 20-hydroxycholecalciferol in DMEM medium containing 5% FBS for 48 h (FIG. 25A) or 72 h (FIG. 25C) or for 24 h after a 12 h synchronization in serum free medium (FIG. 25D). […] was added for a final 18 h (FIGS. 25A, 25D) or 12 h (FIG. 25C) of incubation or cells were assessed with sulforhodamine assay (FIG. 25C). Data is shown as mean±SEM (n=5; FIG. 24C) or mean±SEM (n=6; FIGS. 24A, 24C, 24D) and was analyzed using GraphPrism 4.0.

In data set [3] the test system is U937 promonocytic leukemia cells. The experiment in a line: Monocytic differentiation (NBT), U937. Type of data set: cell-based, human. Conditions: U937, 0.1 μM. As for the experimental part:
HL-60 human promyelocytic and U937 promonocytic leukemia cells were treated with the drugs at 0.1 μM or vehicle (negative control or 12-O-tetradecanoylphorbol-13-acetate (TPA) (positive control). Media were changed every 72 h and test substances added fresh every day. Differentiation toward monocytes-like morphology and NBT-reduction has been assessed after 5 and 7 days. Cells (2×106) were washed with PBS four times and resuspended in 200 μL of NBT solution (4 mg/mL) in water. After the addition of 200 ul of TPA solution (2 ug/ml) in PBS cells were incubated at 37° C. for 60 min in 24-well plates. Cell differentiation was assessed by intracellular blue formazan deposits. The NBT positive and negative cells were scored under light microscopy examination (40×) with a minimum of 200 cells scored.
For spectrophotometric analysis the cells were washed twice with buffer containing cold bovine serum albumin solution (17 mg/mL BSA, 137 mmol/L, NaCl, 5 mmol/L, KCl, 0.8 mmol/L, MgSO4, […], HEPES, pH7.4) to remove unreacted NBT, and the insoluble formazan deposits in the resulting pellet were solubilized in 1 mL of a mixture containing 90% DMSO, 0.1% SDS and 0.01 mmol/L NaOH by vigorous vortexing. The samples were centrifuged 5 min at 1500 g to remove the cellular debris, and then the absorbance of supernatants was measured at 715 nm. Data are expressed as change in A715/106 cells.

As for `C=C1/C(=C\C=C2/CCC[C@]3(C)[C@@H]([C@H](C)CCCC(C)(C)O)CC[C@@H]23)C[C@@H](O)C[C@@H]1O` [1α,25-dihydroxycholecalciferol, (5Z,7E)-9,10-secocholesta-5,7,10(19)-triene-1α,3β,25-triol, reference compound], the proliferation result in data set [1] is listed as “Dose dependent inhibition of the proliferation”.

Usually EC50 stands for the concentration that produces a half-maximal response. For `C=C1CC[C@H](O)C/C1=C/C=C1\CCC[C@@]2(C)[C@H]1CC[C@@H]2[C@@](C)(O)CCCC(C)C` [20(OH)D3, (5Z,7E)-9,10-secocholesta-5,7,10(19)-triene-3β,20-diol], at rat CYP24, the Km is recorded as 0.028±0.007 mol substrate/mol phospholipid and the kcat/Km is 386 min^−1(mol substrate/mol phospholipid)^−1. For the same compound, on rat CYP24 (phospholipid vesicles), the kcat was 10.8±0.8 mol/min/mol CYP24, the “kcat/Km lower than for 1,25(OH)2D3” value is 24 fold and the “kcat/Km lower than that for 25(OH)D3” value is reported as 17 fold. For the same compound, the “increase of CYP24 mRNA levels” value in the data set with CYP24 (10 nM, 24 h) worked out at 1.3 fold. Moreover, the “stimulation of CYP24 mRNA” value in the data set on CYP24 (10^−6, 24 h) is on record as roughly 247 fold. In data set [2], this compound came in with an EC50 of 570 nM.

`C=C1CC[C@H](O)C/C1=C/C=C1\CCC[C@]2(C)[C@@H](C(C)=O)CC[C@@H]12` [pD3, (5Z,7E)-3β-hydroxy-9,10-secopregna-5,7,10(19)-trien-20-one]: the “monocytic differentiation (NBT staining)” value in data set [3] is on record as “induce monocytic differention”.
